Numbered stars: 1 amine (or outer) side, 2 acyl side, 3 side chain; on linkers, the order of the positions; unused ones are H or OH. Side chains are listed from the residue outwards. Ends that are not written are not given here. Peptide text beside a SMILES is read from it. * marks the point of attachment. Arachidoyl = CCCCCCCCCCCCCCCCCCCC(=O)*; γGlu = O=C(O)[C@H](CCC(=O)[*:2])N[*:1]; Palmitoyl = CCCCCCCCCCCCCCCC(=O)*; Lauroyl = CCCCCCCCCCCC(=O)*; Propionyl = CCC(=O)*
Tests used:
Format in all cases: cell-based
[1] = molecular target: hY4R (Homo sapiens, UniProt P50391); assay: Inositol phosphate accumulation assay, hY4R; details: for Emax: read-out: hY4R Emax
Sequence of hY4R (P50391 whole entry): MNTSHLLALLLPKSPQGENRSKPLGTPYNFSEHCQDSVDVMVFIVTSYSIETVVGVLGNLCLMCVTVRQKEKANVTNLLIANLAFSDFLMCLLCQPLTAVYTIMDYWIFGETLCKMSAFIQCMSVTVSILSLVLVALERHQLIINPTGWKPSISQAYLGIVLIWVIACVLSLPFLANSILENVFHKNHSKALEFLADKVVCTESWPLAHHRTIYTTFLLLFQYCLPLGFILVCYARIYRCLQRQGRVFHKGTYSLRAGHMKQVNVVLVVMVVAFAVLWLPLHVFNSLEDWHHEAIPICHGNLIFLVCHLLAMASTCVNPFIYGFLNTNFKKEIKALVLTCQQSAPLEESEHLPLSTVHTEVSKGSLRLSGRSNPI

[2] = molecular target: T1, hY5R (Homo sapiens, UniProt Q15761); assay: Inositol phosphate accumulation assay, hY5R; details: for Emax: read-out: hY5R Emax
T1 sequence (Q15761 1-445): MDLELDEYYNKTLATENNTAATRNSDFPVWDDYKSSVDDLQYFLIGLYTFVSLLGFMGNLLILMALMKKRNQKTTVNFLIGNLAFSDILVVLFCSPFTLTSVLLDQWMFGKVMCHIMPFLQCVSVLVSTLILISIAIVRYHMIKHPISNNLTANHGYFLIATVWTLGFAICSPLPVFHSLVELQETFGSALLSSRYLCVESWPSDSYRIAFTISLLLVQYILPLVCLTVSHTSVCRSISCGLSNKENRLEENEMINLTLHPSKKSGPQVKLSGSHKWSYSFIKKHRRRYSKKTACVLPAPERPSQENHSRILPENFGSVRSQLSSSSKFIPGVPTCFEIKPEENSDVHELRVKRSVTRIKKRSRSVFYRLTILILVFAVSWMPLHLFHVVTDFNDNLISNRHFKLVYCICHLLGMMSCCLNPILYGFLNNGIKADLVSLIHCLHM

[3] = molecular target: T2, hY2R (Homo sapiens, UniProt P49146); assay: Inositol phosphate accumulation assay, hY2R; details: for Emax: read-out: hY2R Emax
T2 sequence (P49146 1-381): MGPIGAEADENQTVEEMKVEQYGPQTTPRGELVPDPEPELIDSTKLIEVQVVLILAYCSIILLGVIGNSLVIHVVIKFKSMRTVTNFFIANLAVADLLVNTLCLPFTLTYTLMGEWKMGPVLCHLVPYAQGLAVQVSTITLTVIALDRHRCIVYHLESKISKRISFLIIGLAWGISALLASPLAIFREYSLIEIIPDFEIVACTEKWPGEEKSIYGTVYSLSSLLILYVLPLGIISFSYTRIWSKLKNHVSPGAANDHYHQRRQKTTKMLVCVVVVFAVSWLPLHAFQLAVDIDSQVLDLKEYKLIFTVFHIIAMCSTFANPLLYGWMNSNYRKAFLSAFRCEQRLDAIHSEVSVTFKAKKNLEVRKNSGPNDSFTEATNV

[4] = molecular target: T3, hY1R (Homo sapiens, UniProt P25929); assay: Inositol phosphate accumulation assay, hY1R; details: for Emax: read-out: hY1R Emax
T3 sequence (P25929 1-384): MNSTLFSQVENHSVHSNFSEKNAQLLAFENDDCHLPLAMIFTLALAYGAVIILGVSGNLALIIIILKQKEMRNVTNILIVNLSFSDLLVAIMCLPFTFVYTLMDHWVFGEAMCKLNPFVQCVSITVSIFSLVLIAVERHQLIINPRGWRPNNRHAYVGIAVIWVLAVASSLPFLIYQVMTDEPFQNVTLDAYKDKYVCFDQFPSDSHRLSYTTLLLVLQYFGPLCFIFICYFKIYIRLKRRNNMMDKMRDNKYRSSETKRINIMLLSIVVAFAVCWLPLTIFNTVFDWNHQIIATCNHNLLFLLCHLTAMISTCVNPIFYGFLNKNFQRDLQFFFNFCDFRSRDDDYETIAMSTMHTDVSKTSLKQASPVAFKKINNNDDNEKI

Molecule	EC50 [1] [nM]	Emax [1] [%]	EC50 [2] [nM]	Emax [2] [%]	EC50 [3] [nM]	Emax [3] [%]	EC50 [4] [nM]	Emax [4] [%]
CCC(=O)N[C@@H](CCC(=O)NCCCC[C@H](NC(=O)[C@H](C)NC(=O)[C@H](Cc1ccc(O)cc1)NC(=O)[C@H](CCC(N)=O)NC(=O)[C@H](C)NC(=O)[C@H](CCSC)NC(=O)[C@H](CCC(N)=O)NC(=O)[C@H](CCC(=O)O)NC(=O)[C@@H]1CCCN1C(=O)[C@@H](NC(=O)[C@H](C)NC(=O)[C@H](CC(N)=O)NC(=O)[C@H](CC(=O)O)NC(=O)CNC(=O)[C@@H]1CCCN1C(=O)[C@H](Cc1ccc(O)cc1)NC(=O)[C@@H](NC(=O)[C@@H]1CCCN1C(=O)[C@H](CCC(=O)O)NC(=O)[C@H](CC(C)C)NC(=O)[C@@H]1CCCN1)C(C)C)[C@@H](C)O)C(=O)N[C@@H](CC(=O)O)C(=O)N[C@@H](CC(C)C)C(=O)N[C@@H](CCCNC(=N)N)C(=O)N[C@@H](CCCNC(=N)N)C(=O)N[C@@H](Cc1ccc(O)cc1)C(=O)N[C@H](C(=O)N[C@@H](CC(N)=O)C(=O)N[C@@H](CCSC)C(=O)N[C@@H](CC(C)C)C(=O)N[C@H](C(=O)N[C@@H](CCCNC(=N)N)C(=O)N1CCC[C@H]1C(=O)N[C@@H](CCCNC(=N)N)C(=O)N[C@@H](Cc1ccc(O)cc1)C(N)=O)[C@@H](C)O)[C@@H](C)CC)C(=O)O [compound 9, [K^22(E-Prop)]hPP2–36] (H-PLEPVYPGDNATPEQMAQYAK([γGlu-Propionyl])DLRRYINMLTRPRY-NH2)	1.1	96 ± 6	21.9	83 ± 2	> 1000	88 ± 6	> 1000	92 ± 4
CCCCCCCCCCCCCCCCCCCC(=O)N[C@@H](CCC(=O)NCCCC[C@H](NC(=O)[C@H](CC(N)=O)NC(=O)[C@@H](NC(=O)[C@H](Cc1ccc(O)cc1)NC(=O)[C@H](CCCNC(=N)N)NC(=O)[C@H](CCCNC(=N)N)NC(=O)[C@H](CC(C)C)NC(=O)[C@H](CC(=O)O)NC(=O)[C@H](C)NC(=O)[C@H](C)NC(=O)[C@H](Cc1ccc(O)cc1)NC(=O)[C@H](CCC(N)=O)NC(=O)[C@H](C)NC(=O)[C@H](CCSC)NC(=O)[C@H](CCC(N)=O)NC(=O)[C@H](CCC(=O)O)NC(=O)[C@@H]1CCCN1C(=O)[C@@H](NC(=O)[C@H](C)NC(=O)[C@H](CC(N)=O)NC(=O)[C@H](CC(=O)O)NC(=O)CNC(=O)[C@@H]1CCCN1C(=O)[C@H](Cc1ccc(O)cc1)NC(=O)[C@@H](NC(=O)[C@@H]1CCCN1C(=O)[C@H](CCC(=O)O)NC(=O)[C@H](CC(C)C)NC(=O)[C@@H]1CCCN1)C(C)C)[C@@H](C)O)[C@@H](C)CC)C(=O)N[C@@H](CC(C)C)C(=O)N[C@H](C(=O)N[C@@H](CCCNC(=N)N)C(=O)N1CCC[C@H]1C(=O)N[C@@H](CCCNC(=N)N)C(=O)N[C@@H](Cc1ccc(O)cc1)C(N)=O)[C@@H](C)O)C(=O)O [compound 19, [K^30(E-Ara)]hPP2–36] (H-PLEPVYPGDNATPEQMAQYAADLRRYINK([γGlu-Arachidoyl])LTRPRY-NH2)	2.5	84 ± 7	0.6	69 ± 10	4.9	88 ± 5	25.1	98 ± 4
CCCCCCCCCCCCCCCC(=O)N[C@@H](CCC(=O)NCCCC[C@H](NC(=O)[C@H](C)NC(=O)[C@H](Cc1ccc(O)cc1)NC(=O)[C@H](CCC(N)=O)NC(=O)[C@H](C)NC(=O)[C@H](CCSC)NC(=O)[C@H](CCC(N)=O)NC(=O)[C@H](CCC(=O)O)NC(=O)[C@@H]1CCCN1C(=O)[C@@H](NC(=O)[C@H](C)NC(=O)[C@H](CC(N)=O)NC(=O)[C@H](CC(=O)O)NC(=O)CNC(=O)[C@@H]1CCCN1C(=O)[C@H](Cc1ccc(O)cc1)NC(=O)[C@@H](NC(=O)[C@@H]1CCCN1C(=O)[C@H](CCC(=O)O)NC(=O)[C@H](CC(C)C)NC(=O)[C@@H]1CCCN1)C(C)C)[C@@H](C)O)C(=O)N[C@@H](CC(=O)O)C(=O)N[C@@H](CC(C)C)C(=O)N[C@@H](CCCNC(=N)N)C(=O)N[C@@H](CCCNC(=N)N)C(=O)N[C@@H](Cc1ccc(O)cc1)C(=O)N[C@H](C(=O)N[C@@H](CC(N)=O)C(=O)N[C@@H](CCSC)C(=O)N[C@@H](CC(C)C)C(=O)N[C@H](C(=O)N[C@@H](CCCNC(=N)N)C(=O)N1CCC[C@H]1C(=O)N[C@@H](CCCNC(=N)N)C(=O)N[C@@H](Cc1ccc(O)cc1)C(N)=O)[C@@H](C)O)[C@@H](C)CC)C(=O)O [compound 12, [K^22(E-Pam)]hPP2–36] (H-PLEPVYPGDNATPEQMAQYAK([γGlu-Palmitoyl])DLRRYINMLTRPRY-NH2)	1.5	78 ± 4	1.9	81 ± 6	1.7	103 ± 12	16.5	93 ± 6

More lines, in order of falling EC50 [1], values ahead:

EC50 [1] [nM]	Emax [1] [%]	EC50 [2] [nM]	Emax [2] [%]	EC50 [3] [nM]	Emax [3] [%]	EC50 [4] [nM]	Emax [4] [%]	Molecule
2.7	93 ± 6	0.8	75 ± 6	0.9	90 ± 5	11.3	101 ± 6	CCCCCCCCCCCCCCCCCCCC(=O)N[C@@H](CCC(=O)NCCCC[C@H](NC(=O)[C@H](C)NC(=O)[C@H](Cc1ccc(O)cc1)NC(=O)[C@H](CCC(N)=O)NC(=O)[C@H](C)NC(=O)[C@H](CCSC)NC(=O)[C@H](CCC(N)=O)NC(=O)[C@H](CCC(=O)O)NC(=O)[C@@H]1CCCN1C(=O)[C@@H](NC(=O)[C@H](C)NC(=O)[C@H](CC(N)=O)NC(=O)[C@H](CC(=O)O)NC(=O)CNC(=O)[C@@H]1CCCN1C(=O)[C@H](Cc1ccc(O)cc1)NC(=O)[C@@H](NC(=O)[C@@H]1CCCN1C(=O)[C@H](CCC(=O)O)NC(=O)[C@H](CC(C)C)NC(=O)[C@@H]1CCCN1)C(C)C)[C@@H](C)O)C(=O)N[C@@H](CC(=O)O)C(=O)N[C@@H](CC(C)C)C(=O)N[C@@H](CCCNC(=N)N)C(=O)N[C@@H](CCCNC(=N)N)C(=O)N[C@@H](Cc1ccc(O)cc1)C(=O)N[C@H](C(=O)N[C@@H](CC(N)=O)C(=O)N[C@@H](CCSC)C(=O)N[C@@H](CC(C)C)C(=O)N[C@H](C(=O)N[C@@H](CCCNC(=N)N)C(=O)N1CCC[C@H]1C(=O)N[C@@H](CCCNC(=N)N)C(=O)N[C@@H](Cc1ccc(O)cc1)C(N)=O)[C@@H](C)O)[C@@H](C)CC)C(=O)O [compound 13, [K^22(E-Ara)]hPP2–36] (H-PLEPVYPGDNATPEQMAQYAK([γGlu-Arachidoyl])DLRRYINMLTRPRY-NH2)
1.9	91 ± 3	6.1	89 ± 5	67.1	107 ± 4	51.4	101 ± 7	PLEPVYPGDNATPEQMAQYAKDLRRYINMLTRPRY-NH2 [compound 8, [K^22]hPP2–36]
1.5	86 ± 5	14.9	87 ± 5	49.6	101 ± 7	204	87 ± 5	CCCCCCCCCCCC(=O)N[C@@H](CCC(=O)NCCCC[C@H](NC(=O)[C@H](C)NC(=O)[C@H](Cc1ccc(O)cc1)NC(=O)[C@H](CCC(N)=O)NC(=O)[C@H](C)NC(=O)[C@H](CCSC)NC(=O)[C@H](CCC(N)=O)NC(=O)[C@H](CCC(=O)O)NC(=O)[C@@H]1CCCN1C(=O)[C@@H](NC(=O)[C@H](C)NC(=O)[C@H](CC(N)=O)NC(=O)[C@H](CC(=O)O)NC(=O)CNC(=O)[C@@H]1CCCN1C(=O)[C@H](Cc1ccc(O)cc1)NC(=O)[C@@H](NC(=O)[C@@H]1CCCN1C(=O)[C@H](CCC(=O)O)NC(=O)[C@H](CC(C)C)NC(=O)[C@@H]1CCCN1)C(C)C)[C@@H](C)O)C(=O)N[C@@H](CC(=O)O)C(=O)N[C@@H](CC(C)C)C(=O)N[C@@H](CCCNC(=N)N)C(=O)N[C@@H](CCCNC(=N)N)C(=O)N[C@@H](Cc1ccc(O)cc1)C(=O)N[C@H](C(=O)N[C@@H](CC(N)=O)C(=O)N[C@@H](CCSC)C(=O)N[C@@H](CC(C)C)C(=O)N[C@H](C(=O)N[C@@H](CCCNC(=N)N)C(=O)N1CCC[C@H]1C(=O)N[C@@H](CCCNC(=N)N)C(=O)N[C@@H](Cc1ccc(O)cc1)C(N)=O)[C@@H](C)O)[C@@H](C)CC)C(=O)O [compound 11, [K^22(E-Laur)]hPP2–36] (H-PLEPVYPGDNATPEQMAQYAK([γGlu-Lauroyl])DLRRYINMLTRPRY-NH2)
